Assay results: patent US7919456B2, “Connective tissue derived polypeptides” (Proteobioactives Pty Ltd., priority 2003, dated 2011)

Tested on: rat collagen induced arthritis (CIA) model
Test: Rat collagen induced arthritis (CIA), prophylactic/therapeutic protocol
Assay type: in vivo, Female Wistar rats
Settings: 6.3 mg/kg SC
[1] = 15 days treatment, n = 4, scored 0-4+

O=C(O)CC([S-])C(=O)O.[Au+] (stereo not drawn) [ATM, aurothiomalate]
Signs of arthritis Day 15 Weight change: +47 g
Signs of arthritis Day 18 Weight change: +04 g
Mean arthritis scores Day 13 [1]: 0.8
Mean arthritis scores Day 15 [1]: 2.1
Mean arthritis scores Day 18 [1]: 2.1
Signs of arthritis Day 15 F/paw swell (fore paw): 2.5 mm
Signs of arthritis Day 18 F/paw swell (fore paw): 3.2 mm
Signs of arthritis Day 15 R/paw swell (rear paw): 0.7 mm
Signs of arthritis Day 18 R/paw swell (rear paw): 0.8 mm
